Test results taken from patent US10202584B2, “Red-shifted luciferase-luciferin pairs for enhanced bioluminescence” (The Regents of the University of California, priority 2016, dated 2019).
Where two headings read alike, the source gives them in different places.

Experiments:
[1] = system: HEK 293T cells; assay: Cytotoxicity of luciferins (RealTime-Glo MT Cell Viability Assay; propidium iodide staining); type: cell-based; conditions: 24 h at 37° C., millimolar concentrations
Experimental: (§1) FIG. 15 is a panel showing the evaluation of the cytotoxicity of various luciferins. (15a) Viability of HEK 293T cells determined using RealTime-Glo™ MT Cell Viability Assay (Promega) after incubation with individual luciferin substrates for 24 h at 37° C. (15b) Evaluation of cell morphology and staining of dead cells. Cells incubated with the indicated luciferins for 24 h at 37° C. were stained with propidium iodide (PI), a fluorescent dye for dead cells.
(§2) Cell viability was determined using RealTime-Glo™ MT Cell Viability Assay (Promega) after incubation of HEK 293T cells with individual luciferin substrates for 24 h at 37° C. Cell morphology was further evaluated using microscopy. Briefly, HEK 293T cells in 35-mm culture dishes were washed twice with 400 μL DPBS pre-warmed to 37° C., and further incubated in 500 μL DPBS containing 20 μg/mL propidium iodide (PI), a fluorescent stain for dead cells, at room temperature for 15 min under light-shielded conditions. Cells were further rinsed with pre-warmed 300 μL DPBS three times to remove residual PI. Cells in 300 μL DPBS were next analyzed on a Motic AE31 microscope equipped with a 100 W Short-Arc Mercury lamp, a 540/25 nm excitation filter, a 565 nm longpass dichroic mirror, and a 605/55 nm emission filter.

[2] = target: ReNL (NanoLuc fused to fluorescent protein) (Oplophorus gracilirostris, UniProt Q9GV45); assay: Apparent Michaelis constant and kcat, ReNL, bioluminescence; type: biochemical; conditions: assay buffer pH 6.0, mean ± s.d., n = 3
Sequence of ReNL (NanoLuc fused to fluorescent protein) (Q9GV45 28-196): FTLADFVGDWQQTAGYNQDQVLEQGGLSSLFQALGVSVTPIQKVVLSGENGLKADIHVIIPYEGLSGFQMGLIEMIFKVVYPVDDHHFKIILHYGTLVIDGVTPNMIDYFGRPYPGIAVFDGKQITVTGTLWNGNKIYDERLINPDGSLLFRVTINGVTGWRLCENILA
From the text: (§3) The final concentrations of all enzymes were 100 pM.
(§4) Signals were integrated until the substrates were completely consumed.

[3] = system: HEK 293T cells; assay: Evaluation of the cytotoxicity of luciferins
Experimental: as §1, §2

[4] = target: Antares (NanoLuc fused to CyOFP1) (Oplophorus gracilirostris, UniProt Q9GV45); assay: Apparent Michaelis constant and kcat, Antares, bioluminescence; type: biochemical; conditions: assay buffer pH 6.0, mean ± s.d., n = 3
Sequence of Antares (NanoLuc fused to CyOFP1) (Q9GV45 28-196): as above
From the text: as §3
(9a) Primary structural arrangement of Antares and Antares2.
as §4

[5] = target: NanoLuc luciferase (Oplophorus gracihrostris-derived, parent, SEQ ID NO: 1) (Oplophorus gracilirostris, UniProt Q9GV45, A31E/A60N/A81I/F95D/I117V/K70R/L54V/L99Q/M102K/N193R/P142E/Q151K/Q38R/Q45L/V71I/Y165I); assay: Apparent Michaelis constant and kcat, purified NanoLuc, bioluminescence; conditions: kcat=Imax/(QY*[E]); assay buffer pH 6.0; mean ± s.d., n = 3
Sequence of NanoLuc luciferase (Oplophorus gracihrostris-derived, parent, SEQ ID NO: 1) (Q9GV45 28-196 A31E/Q38R/Q45L/L54V/A60N/K70R/V71I/A81I/F95D/L99Q/M102K/I117V/P142E/Q151K/Y165I/N193R, looked up): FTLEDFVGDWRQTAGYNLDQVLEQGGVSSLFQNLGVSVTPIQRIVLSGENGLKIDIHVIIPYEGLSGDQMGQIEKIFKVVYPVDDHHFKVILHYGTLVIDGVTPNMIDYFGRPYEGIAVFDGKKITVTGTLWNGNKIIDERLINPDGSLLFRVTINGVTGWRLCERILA
From the text: as §3, §4

[6] = system: BALB/c mice; assay: Bioluminescence imaging in deep tissues of live mice (hydrodynamic transfection); type: in vivo
From the text: FIG. 2 is a panel showing bioluminescence imaging of luciferase-luciferin pairs at superficial sites and in deep tissues of live mice. […] The group numbers in panel 2b are aligned with those in panel 2a. Two injection sites (one for luciferase-expressing cells and one for empty vehicle controls) for each mouse are illustrated with red arrows. […] Data are shown as mean and s.d. (n=3). […] Data are shown as mean and s.d. (n=4 for teLuc, Antares, and Antares2 with 3.3 μmol substrates, and n=3 for all other groups).
FIG. 16 is a graph of bioluminescence kinetics of IP injected luciferins (3.3 μmol each) in hydrodynamically transfected mice.
Hydrodynamic transfections were performed on BALB/c mice as described elsewhere. Briefly, 20 μg of each luciferase-expressing plasmid in sterilized saline (volume equivalent to 9% bodyweight of the treated mouse) was injected into restrained mice via the tail vein over 4-8 sec. Mice were allowed to recover on heat pads and were monitored until their breathing rate returned to normal. […] To inject 3.3 μmol DTZ or furimazine, the total volumes were increased to 500 μL. […] The Fiji image analysis software was used to process images and derive integrated intensities.

[7] = system: purified luciferases; assay: In vitro bioluminescence intensity with purified recombinant proteins; type: biochemical; conditions: assayed with NanoLuc
From the text: as §4

[8] = system: luciferase-expressing HEK 293T cells; assay: Bioluminescence imaging of intact luciferase-expressing HEK 293T cells; type: cell-based, Human; conditions: FLuc-expressing HEK 293T cells, millimolar substrate
From the text: Images were acquired without a filter (1c) or with a 695±25 nm NIR emission filter (1e). Panels 2d and 2f are quantification results for Panels 2c and 2e, respectively. […] Data are shown as mean and s.d. of three independent experiments.
Data are shown as mean and s.d. of three independent experiments.
HEK 293T (purchased from ATCC and tested for mycoplasma by PCR), which is one of the most widely used and readily transfectable cell lines, was used for all tissue culture transfections. HEK 293T cells were cultured at 37° C. with 5% CO2 in Dulbecco's Modified Eagle's Medium (DMEM) supplemented with 10% fetal bovine serum (FBS). Transfection mixtures were prepared with 3 μg of plasmid DNA and 9 μg of PEI (polyethylenimine, linear, MW 25 kDa) in DMEM and incubated for 20 min at room temperature. The medium was first aspirated, and subsequently, the transfection mixtures were added to cells at 70% confluency on 35-mm culture dishes seeded one day prior to transfection. […]
The number and density of cells in DPBS suspension were determined using a hemocytometer. […] To use the luminescence dark box to directly image cells, we added luciferase-expressing HEK293T cells (2000 cells per well with ˜70% transfection efficiency) and the corresponding luciferin substrates into wells of a white-wall, 96-well plate. […] All images were analyzed using the Fiji image analysis software [1].

[9] = target: NanoLuc (Oplophorus gracilirostris, UniProt Q9GV45, A31E/A60N/A81I/F95D/I117V/K70R/L54V/L99Q/M102K/N193R/P142E/Q151K/Q38R/Q45L/V71I/Y165I); conditions: cited from earlier work
Sequence of NanoLuc (Q9GV45 28-196 with tags or gaps with the stated changes limits assumed): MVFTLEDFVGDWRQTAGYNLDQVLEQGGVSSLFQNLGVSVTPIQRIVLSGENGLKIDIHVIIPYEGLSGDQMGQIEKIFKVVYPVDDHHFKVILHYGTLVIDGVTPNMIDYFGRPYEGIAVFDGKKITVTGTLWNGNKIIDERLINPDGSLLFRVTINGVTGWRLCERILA

[10] = target: Rluc8 (Renilla reniformis, UniProt P27652, A143M/A55T/C124A/K136R/M185V/M253L/S130A/S287L); conditions: RLuc mutant Rluc8; cited from earlier work
Sequence of Rluc8 (P27652 whole entry A55T/C124A/S130A/K136R/A143M/M185V/M253L/S287L): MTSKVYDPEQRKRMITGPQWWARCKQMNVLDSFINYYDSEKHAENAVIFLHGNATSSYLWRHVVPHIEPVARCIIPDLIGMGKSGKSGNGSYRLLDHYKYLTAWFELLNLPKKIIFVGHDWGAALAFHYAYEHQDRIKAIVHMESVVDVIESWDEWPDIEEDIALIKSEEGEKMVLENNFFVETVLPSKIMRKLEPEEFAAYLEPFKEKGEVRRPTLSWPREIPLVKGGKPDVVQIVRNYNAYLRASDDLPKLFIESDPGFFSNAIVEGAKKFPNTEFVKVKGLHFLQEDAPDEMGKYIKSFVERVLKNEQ

[11] = apparent, 100 pM enzyme, substrate 0.78 to 50 μM

O=c1c(Cc2ccccc2)nc2c(-c3ccccc3)[nH]c(-c3ccccc3)cn1-2 [DTZ]
cell toxicity [1]: minimal cell toxicity

O=c1c(Cc2ccco2)nc2c(Cc3ccccc3)[nH]c(-c3ccccc3)cn1-2 [furimazine]
Km [2, 11]: 14.5 ± 1.3 µM | kcat ([2]; kcat=Imax/(QY*[E])): 104 ± 4 s⁻¹ | cell toxicity [3]: induced cell death | cytotoxicity by propidium iodide staining of dead cells ([3]; HEK 293T cells, 24 h at 37° C.): further confirmed by the red fluorescence of PI | Km [4, 11]: 11.1 ± 0.5 µM | kcat ([4]; kcat=Imax/(QY*[E])): 112 ± 2 s⁻¹ | kcat [5]: 88.2 ± 1.7 s⁻¹

O=c1c(Cc2ccccc2)nc2c(-c3ccccc3)[nH]c(-c3ccccc3)cn1-2 [DTZ, diphenylterazine]
bioluminescence kinetics after intraperitoneal injection ([6]; 3.3 μmol, hydrodynamically transfected mice): extended kinetics | background emission in untransfected BALB/c mice ([6]; DTZ injection): did not yield any background emission | cell toxicity ([3]; HEK 293T cells, 24 h at 37° C., RealTime-Glo MT Cell Viability Assay): minimal cell toxicity at millimolar concentrations | brightness relative to furimazine [7]: reduced brightness

O=c1c(Cc2ccccc2)nc2c([Se]c3ccccc3)[nH]c(-c3ccccc3)cn1-2 [STZ, 2-benzyl-6-phenyl-8-(phenylselanyl)imidazo[1,2-a]pyrazin-3(7H)-one]
cell toxicity [3]: induced cell death | cytotoxicity by propidium iodide staining of dead cells [3]: further confirmed by the red fluorescence of PI | brightness relative to furimazine [7]: reduced brightness

AkaLumine-HCl
cell toxicity [3]: induced cell death | cytotoxicity by propidium iodide staining of dead cells ([3]; HEK 293T cells, 24 h at 37° C.): further confirmed by the red fluorescence of PI | bioluminescence intensity with FLuc compared with teLuc or Antares2 with micromolar DTZ [8]: 1-2 orders of magnitude lower

6-pi-OH-CTZ
bioluminescence with NanoLuc [9]: hardly any bioluminescence | red-shift of Rluc8 bioluminescence [10]: 47 nm

O=C(O)[C@H]1CSC(c2nc3ccc(O)cc3s2)=N1 [D-luciferin]
bioluminescence intensity with FLuc compared with teLuc or Antares2 with micromolar DTZ [8]: 1-2 orders of magnitude lower
